Measured values from US9856321B2, “Anti-DR5 antibodies, polynucleotides and methods” (Daiichi Sankyo Company, Limited, priority 2010, dated 2018).

Key:
[1] = test system: human colon cancer cell line HCT-15; assay: Antitumor activity in combination with 5-FU in nude mice implanted with HCT-15, comparison with conatumumab; assay type: in vivo; settings: day 28; antibody 3 mg/kg tail vein days 7, 14, 21; 5-FU 160 mg/kg tail vein day 7
[2] = test system: human colon cancer cell line HCT-15; assay: Antitumor activity in nude mice implanted with HCT-15 (in combination with CPT-11); assay type: in vivo; settings: day 31; cB273 10 mg/kg tail vein day 7; CPT-11 80 mg/kg ip days 7, 10, 14
Description: CPT-11 was intraperitoneally administered at a dose of 80 mg/kg on days 7, 10, and 14 after the implantation (n=10).

[3] = test system: human colon cancer cell line DLD-1; assay: Antitumor activity in nude mice implanted with DLD-1 (in combination with CPT-11); assay type: in vivo; settings: day 55; cB273 10 mg/kg ip day 35; CPT-11 80 mg/kg ip days 35, 40, 43
Description: CPT-11 was intraperitoneally administered at a dose of 80 mg/kg on days 35, 40, and 43 after the implantation (n=10).

[4] = test system: human colon cancer cell line HCT-116; assay: Antitumor activity in nude mice implanted with HCT-116 (in combination with CPT-11); assay type: in vivo; settings: day 28; cB273 10 mg/kg tail vein day 7; CPT-11 65 mg/kg ip days 7, 10, 14
Description: CPT-11 was intraperitoneally administered at a dose of 65 mg/kg on days 7, 10, and 14 after the implantation (n=10).

[5] = test system: human non-small cell lung cancer cell line NCI-H1975; settings: day 32; antibody 3 mg/kg tail vein days 11, 18, 25; paclitaxel 6.25 mg/kg tail vein days 11-14
Description: The major axis and the minor axis of the implanted tumor were measured twice a week using an electronic digital caliper (manufactured by Mitutoyo Corporation), and the tumor volume was calculated according to the following calculation formula. Tumor volume (mm^3)=1/2×(Minor axis)^2 (mm)×(Major axis)^2 (mm)
3×10^6 cells of a human non-small cell lung cancer cell line NCI-H1975 (purchased from ATCC) were implanted subcutaneously in the axillary region of nude mice. […] Paclitaxel was administered to tumor-bearing mice through the tail vein on days 11, 12, 13, and 14 after the implantation at a dose of 6.25 mg/kg. The experiment was carried out at n=6. In the same manner as described above, the major axis and the minor axis of the implanted tumor were measured, and the tumor volume was calculated.

[6] = test system: human melanoma cell line A375; assay: Antitumor activity in nude mice implanted with A375 (in combination with vinblastine); assay type: in vivo; settings: day 46; cB273 10 mg/kg tail vein days 10, 17, 24; vinblastine 10 mg/kg tail vein day 10
[7] = test system: human lung cancer cell line NCI-H1975; assay: Comparison of antitumor activity in nude mice implanted with NCI-H1975 between cB273 and conatumumab; assay type: in vivo; settings: day 32 after the implantation
Description: 3×10^6 cells of a human lung cancer cell line NCI-H1975 (purchased from ATCC) were implanted subcutaneously in the axillary region of nude mice. […] In the same manner as described above, the major axis and the minor axis of the implanted tumor were measured, and the tumor volume was calculated.

[8] = test system: human colon cancer cell line HCT-15; assay: Comparison of antitumor activity in nude mice implanted with HCT-15 between cB273 and conatumumab; assay type: in vivo; settings: day 30 after the implantation
Description: 1×10^7 cells of a human colon cancer cell line HCT-15 (purchased from ATCC) were implanted subcutaneously in the axillary region of nude mice. […] In the same manner as described above, the major axis and the minor axis of the implanted tumor were measured, and the tumor volume was calculated.

[9] = test system: human T-lymphoma cell line Jurkat; assay: In vitro cytocidal activity of mouse antibody B273, Jurkat; assay type: cell-based; settings: 10,000 to 0.01 ng/ml with goat anti-mouse IgG Fc, 24 hours
Description: (§1) Each of a human T-lymphoma cell line Jurkat and a human glioblastoma cell line U-87MG was prepared at 4.4×10^4 cells/ml in RPMI 1640 medium containing 10% FBS or MEM (Minimum Essential Medium) medium containing 10% FBS and added to a white clear bottom 96-well microplate (manufactured by Corning Incorporated) at […], and cultured overnight under the conditions of 37° C. and 5% CO2. The mouse B273 antibody or the mouse IgG1 antibody (manufactured by R&D Systems, Inc.) was mixed with the same concentration of AffiniPure goat anti-mouse IgG Fc specific (manufactured by Jackson ImmunoResearch Laboratories, Inc., #115-005-071), and the resulting mixture was added at 5 μl/well such that the final concentration of the mouse B273 antibody or the mouse IgG1 antibody was 10,000 to 0.01 ng/ml, and the cells were cultured under the conditions of 37° C. and 5% CO2 for 24 hours. The amount of ATP derived from viable cells in each well was measured by a luminometer (manufactured by Perkin Elmer, Inc.) using a CellTiter-Glo® luminescent cell viability assay kit (manufactured by Promega Corporation, #G7571) according to the attached protocol. The cytocidal activity was evaluated by taking the value obtained from the well to which the medium was added in place of the antibody solution as 100% (FIG. 1). In each graph, the cell viability is expressed as a mean±standard deviation (n=3).

[10] = test system: human glioblastoma cell line U-87MG; assay: In vitro cytocidal activity of mouse antibody B273, U-87MG; assay type: cell-based; settings: 10,000 to 0.01 ng/ml with goat anti-mouse IgG Fc, 24 hours
Description: as §1

## O=c1[nH]cc(F)c(=O)[nH]1 [5-FU]
[1]
  tumor growth inhibitory rate: 54%

## CCc1c2c(nc3ccc(OC(=O)N4CCC(N5CCCCC5)CC4)cc13)-c1cc3c(c(=O)n1C2)COC(=O)[C@]3(O)CC [CPT-11, irinotecan (CPT-11), reference compound]
[2]
  tumor growth inhibitory rate: 83.5%
[3]
  tumor growth inhibitory rate: 29.5%
[4]
  tumor growth inhibitory rate: 89.8%

## CC(=O)O[C@H]1C(=O)[C@@]2(C)[C@H]([C@H](OC(=O)c3ccccc3)[C@]3(O)C[C@H](OC(=O)[C@H](O)[C@@H](NC(=O)c4ccccc4)c4ccccc4)C(C)=C1C3(C)C)[C@]1(OC(C)=O)CO[C@@H]1C[C@@H]2O [paclitaxel]
[5]
  tumor growth inhibitory rate: 49%

## CC[C@]1(O)C[C@@H]2CN(CCc3c([nH]c4ccccc34)[C@@](C(=O)OC)(c3cc4c(cc3OC)N(C)[C@H]3[C@@](O)(C(=O)OC)[C@H](OC(C)=O)[C@]5(CC)C=CCN6CC[C@]43[C@@H]65)C2)C1 [vinblastine, reference compound]
[6]
  tumor growth inhibitory rate: 43.6%

## conatumumab [reference compound]
[7]; 3 mg/kg tail vein days 12, 19, 26
  tumor growth inhibitory rate: 13.5%
[7]; 10 mg/kg tail vein days 12, 19, 26
  tumor growth inhibitory rate: 12.6%
[8]; 3 mg/kg tail vein days 6, 13, 20
  tumor growth inhibitory rate: 27.4%
[8]; 10 mg/kg tail vein days 6, 13, 20
  tumor growth inhibitory rate: 26.9%
[8]; 30 mg/kg tail vein days 6, 13, 20
  tumor growth inhibitory rate: 20.3%
[1]
  tumor growth inhibitory rate: 27%
[5]
  tumor growth inhibitory rate: 40%

B1: B273: mouse anti-human DR5 monoclonal antibody from hybridoma B273; heavy chain SEQ ID NO: 8, light chain SEQ ID NO: 10; IgG1, κ (antibody, listed as Mus musculus)
heavy: MGWSCIFLFLLSVTVGVFSEVQLQQSGPELVKPGASVKISCKASGYSFIGYFMNWMKQSHGKSLEWIGRFNPYNGDTFYNQKFKGKATLTVDKSSTTAHMELLSLTSEDSAVYFCGRSAYYFDSGGYFDYWGQGTTLTVSSAKTTPPSVYPLAPGSAAQTNSMVTLGCLVKGYFPEPVTVTWNSGSLSSGVHTFPAVLQSDLYTLSSSVTVPSSTWPSETVTCNVAHPASSTKVDKKIVPRDCGCKPCICTVPEVSSVFIFPPKPKDVLTITLTPKVTCVVVDISKDDPEVQFSWFVDDVEVHTAQTQPREEQFNSTFRSVSELPIMHQDWLNGKEFKCRVNSAAFPAPIEKTISKTKGRPKAPQVYTIPPPKEQMAKDKVSLTCMITDFFPEDITVEWQWNGQPAENYKNTQPIMDTDGSYFVYSKLNVQKSNWEAGNTFTCSVLHEGLHNHHTEKSLSHSPGK
light: MKLPVRLLVLMFWIPASSSDVVMTQTPLSLPVSLGDQASISCRSSQSLVHSNGNTYLHWYLQKPGQSPKLLIYKVSNRFSGVPDRFSGSGSGTDFTLKISRVEAEDLGIYFCSQSTHVPWTFGGGTKLEIKRADAAPTVSIFPPSSEQLTSGGASVVCFLNNFYPKDINVKWKIDGSERQNGVLNSWTDQDSKDSTYSMSSTLTLTKDEYERHNSYTCEATHKTSTSPIVKSFNRNEC
[9]
  cytocidal effect (cell viability, ATP): exhibits a cytocidal effect on both cell lines in an antibody concentration-dependent manner
[10]
  cytocidal effect (cell viability, ATP): exhibits a cytocidal effect on both cell lines in an antibody concentration-dependent manner
